The target of data set [1] is T1, Cathepsin G (Homo sapiens) (UniProt P08311).
T1 sequence (whole entry): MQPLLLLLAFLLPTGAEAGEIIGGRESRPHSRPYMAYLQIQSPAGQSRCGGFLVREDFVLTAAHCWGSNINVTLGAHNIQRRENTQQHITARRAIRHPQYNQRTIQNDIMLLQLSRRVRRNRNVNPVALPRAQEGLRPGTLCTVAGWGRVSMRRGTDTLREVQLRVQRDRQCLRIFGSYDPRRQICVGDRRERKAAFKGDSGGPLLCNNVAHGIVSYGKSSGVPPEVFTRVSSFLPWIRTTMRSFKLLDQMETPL
Nature of the data set: Inhibitory activity against human Cathepsin G at 100 uM; Not active.

Data set [2] has as its target T2, Prothrombin (Homo sapiens, UniProt P00734). Nature of the data set: Binding affinity to human thrombin.
In data set [3] the target is Tryptase (Homo sapiens, UniProt Q9BZJ3+Q15661+Q9NRR2). Briefly: Binding affinity against human alpha tryptase. The class given is protein assay.
Data set [4] addresses T2, Prothrombin. Briefly: Binding activity against human alpha thrombin.
Data set [5] can be described thus: Oral bioavailability. The class given is ADME, organism-based. Particulars: eutheria, in vivo.
The subject of data set [6] is Oryctolagus cuniculus. Nature of the data set: In vivo antithrombotic activity using rabbit thrombosis model. In kind it is functional.
Data set [7] relates to Canis familiaris. Nature of the data set: In vivo antithrombotic activity using canine thrombosis model. In kind it is functional. The conditions noted are these: Canis lupus familiaris.
Data set [8] concerns the target T3, Cathepsin G (Homo sapiens, UniProt P08311).
T3 sequence (P08311 whole entry): T1 sequence (whole entry)
Briefly: Inhibitory activity against human Cathepsin G.

The values below come from ChEMBL document CHEMBL1148408, “Inhibitors of serine proteases as potential therapeutic agents: the road from thrombin to tryptase to cathepsin G” (J Med Chem, 2004).

SMILES strings stand for the structures.

A word on the inhibition: it is the drop in the measured response relative to a control, in per cent. Higher therefore signals strong suppression. `O=P(O)(O)C(c1cccc2ccccc12)C(O)c1ccc2ccccc2c1` (stereo not drawn) returned an inhibition in data set [1] below 50%. In general, Ki refers to a measure of affinity in units of concentration, obtained from inhibition or displacement. A low value points to a stronger hold on the target. On to `N=C(N)NCCC[C@@H]1NC(=O)C2CCCN2C(=O)[C@@H](NCCc2ccccc2)CNC(=O)/C=C/[C@H](Cc2ccc(O)cc2)NC(=O)[C@@H](Cc2ccccc2)NC(=O)C1=O` (stereo partly drawn), for which the Ki in data set [2] turned out to be 1.5 nM. This lies in the single-digit nanomolar range. For the molecule `O=C(c1ccc2ccccc2c1)C(c1ccc2ccccc2c1)P(=O)(O)O` (stereo not drawn), in data set [1], the inhibition is below 50%. As to `CN[C@H](Cc1ccccc1)C(=O)N1CCC[C@H]1C(=O)N[C@@H](CCCN=C(N)N)C(=O)c1nccn1C`, the affinity in data set [2], expressed as Ki, was 200 nM. For `O=C(c1cccc2ccccc12)C(c1cccc2ccccc12)P(=O)(O)O` (stereo not drawn), the inhibition in data set [1] was below 50%. In data set [3], `CC(=O)N1C[C@H](O)C[C@H]1C(=O)N[C@@H](CCCN=C(N)N)C(=O)c1nc2ccccc2s1` displayed a Ki of 10 nM. In general, IC50 refers to the concentration at which inhibition is half-maximal. Low values mean inhibition by little substance, high ones a need for much substance. Turning to `CN[C@@H](C(=O)N1CCC[C@H]1C(=O)N[C@@H](CCCN=C(N)N)C(=O)c1nc2ccccc2s1)C(c1ccccc1)c1ccccc1`, the IC50 in data set [4] turned out to be 4.5 nM. In addition, the affinity in data set [2], expressed as Ki, was 0.00065 nM.

`O=C(c1ccc2ccccc2c1)C(c1ccccc1)P(=O)(O)O` (stereo not drawn): the inhibition in data set [1] is below 50%.

In data set [2], `N=C(N)NCCC[C@@H]1NC(=O)C2CCCN2C(=O)[C@@H](NC=O)CNC(=O)/C=C/[C@H](Cc2ccc(O)cc2)NC(=O)[C@@H](Cc2ccccc2)NC(=O)C1=O` (stereo partly drawn) returned a Ki of 4.1 nM.

As a reminder, the bioavailability is the share of a dose that reaches the circulation, judged against a reference dose that is usually intravenous. One may read the ED50 as the midpoint of the dose-response relation. The low end stands for greater potency, the high end for weaker potency. For `CN[C@H](Cc1ccccc1)C(=O)N1CCC[C@H]1C(=O)N[C@@H](CCCN=C(N)N)C(=O)c1nc2ccccc2s1`, the bioavailability in data set [5] came out at 1%. For the same molecule, in data set [6], the ED50 was found to be 0.29 mg/kg. Moreover, the affinity in data set [2], expressed as Ki, was 0.2 nM. With `O=C(Cc1ccc2ccccc2c1)C(c1cccc2ccccc12)P(=O)(O)O` (stereo not drawn), the inhibition in data set [1] was below 50%. `CN[C@H](Cc1ccccc1)C(=O)N1CCC[C@H]1C(=O)N[C@@H](CCCNC(=N)N)C(=O)c1nc2ccc(C(=O)O)cc2s1` showed a bioavailability in data set [5] of 3%. Besides, the ED50 in data set [7] came out at 0.47 mg/kg; in data set [6], 0.3 mg/kg. In data set [3], `N=C(N)NCCC[C@H](NC(=O)C1CCCC1)C(=O)c1nc2ccccc2s1` came in with a Ki of 88 nM. In turn, `N=C(N)NCCC[C@@H]1NC(=O)[C@@H]2CCCN2C(=O)[C@@H](NC=O)NC(=O)CCCCCCNC(=O)C1=O` gave a Ki in data set [2] of 260 nM. The same measure, in the same setting: to `CN[C@H](Cc1ccccc1)C(=O)N1CCC[C@H]1C(=O)N[C@@H](CCCNC(=N)N)C(=O)c1nc2ccccc2[nH]1` belongs 9.6 nM; to `N=C(N)NCCC[C@@H]1NC(=O)C2CCCN2C(=O)[C@@H](Cc2ccccc2)NC(=O)CCCCCCCNC(=O)C1=O` (stereo partly drawn), 24 nM.

Consider `CN[C@H](Cc1ccccc1)C(=O)N1CCC[C@H]1C(=O)N[C@@H](CCCN=C(N)N)C(=O)c1nc(O)c2ccccc2n1`, for which the Ki in data set [2] worked out at 15 nM. Take `CN(Cc1ccccc1)C(=O)c1cc2ccccc2cc1C(=O)C(c1cccc2ccccc12)P(=O)(O)O` (stereo not drawn): it took 1000 nM to reach half-maximal inhibition in data set [8] (IC50).

For `N=C(N)NCCC[C@@H]1NC(=O)C2CCCN2C(=O)[C@@H](NC(=O)Cc2ccccc2)CNC(=O)/C=C/[C@H](Cc2ccc(O)cc2)NC(=O)[C@@H](Cc2ccccc2)NC(=O)C1=O` (stereo partly drawn), in data set [2], the affinity, expressed as Ki, was 3.1 nM. That is a single-digit nanomolar value. `CN[C@H](Cc1ccccc1)C(=O)N1CCC[C@H]1C(=O)N[C@H](C=O)CCCNC(=N)N` registered an ED50 in data set [6] of 0.13 mg/kg. In data set [1], `O=P(O)(O)C(Cc1ccc2ccccc2c1)c1cccc2ccccc12` (stereo not drawn) displayed an inhibition below 50%. Turning to `CC(C(=O)c1ccc2ccccc2c1)(c1cccc2ccccc12)P(=O)(O)O` (stereo not drawn), in data set [1], the inhibition is below 50%. Same read-out and setting: next, `O=P(O)(O)C(c1cccc2ccccc12)S(=O)(=O)c1ccc2ccccc2c1` (stereo not drawn): below 50%.

Take `CN(CC(=O)NCCc1ccccc1)C(=O)c1cc2ccccc2cc1C(=O)C(c1cccc2ccccc12)P(=O)(O)O` (stereo not drawn): inhibition in data set [8] was half-maximal at 1300 nM (IC50). The same measure, in the same setting: to `CN(CC(=O)NCC(c1ccccc1)c1ccccc1)C(=O)c1cc2ccccc2cc1C(=O)C(c1cccc2ccccc12)P(=O)(O)O` (stereo not drawn) belongs 500 nM. On the same count and under the same terms, next, `O=C(c1ccc2ccccc2c1)C(c1cccc2ccccc12)P(=O)(O)O` (stereo not drawn): 4100 nM. `CN[C@H](Cc1ccccc1)C(=O)N1CCC[C@H]1C(=O)N[C@@H](CCCNC(=N)N)C(=O)c1nccs1` displayed a Ki in data set [2] of 2.1 nM. Still for that read-out and setting: next, `CN[C@H](Cc1ccccc1)C(=O)N1CCC[C@H]1C(=O)N[C@@H](CCCN=C(N)N)C(=O)c1nc2ccccc2o1`: 6.2 nM.
